Here are results for nine compounds from US20250042911A1, “NOVEL BENZOPYRAN DERIVATIVE AND USE THEREOF” (SPARK BIOPHARMA, INC, priority 2021, published 2025).

One assay has as its system melanoma cells (B316F10). The assay can be described thus: Tumor growth inhibition in C57BL/6 syngeneic mouse model implanted with melanoma cells. The settings on record: 20 mg/kg orally once a day for 9 or 10 days, female C57BL/6 mice with implanted melanoma cells, tumor volume vs control group; for inhibition in vivo at 20 mg/kg: Mus musculus, po, read-out: TGI (%). Format: in vivo. As for the experimental part: The tumor growth inhibition effect of benzopyrene derivatives was evaluated in a C57BL/6 mouse tumor model (syngeneic mouse model) in which melanoma cells (B316F10) derived from C57BL/6 mice are implanted.
After the quarantine and acclimation period was over, a cell suspension prepared with 5×10^5 cells/0.1 mL PBS was filled into a disposable syringe and administered in an amount of 0.1 mL PBS/head subcutaneously to the right back of healthy test animals (female C57BL/6, 7 weeks old) for implantation. After cell line implantation, general symptoms were observed once daily during the engraftment and growth period. Animals with no abnormalities in their health and whose tumor volume reached 50 to 100 mm^3 when measured with a digital caliper were selected. Then, based on tumor volume and body weight, the groups were separated so that the average tumor volume per group was 70 to 100 mm^3. Ten (10) animals were separated per group, and 20 mg/kg of benzopyran derivatives were administered orally once a day for 9 or 10 days. Tumor volume was measured once every 2 or 3 days.
The measured tumor volume of the test compound administered groups was compared with that of the control group and is represented in Table 2 as the tumor growth inhibition (TGI, %).

A further assay has as its system human M2 macrophages. The experiment in a line: Inhibition of human M2 macrophage activity, hCCL22 in culture supernatant by ELISA. Format: cell-based. The settings on record: hCCL22 secretion, THP-1 derived M2-like macrophages, compound present during 72 hours of differentiation. The method, boiled down: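 THP-1 monocytes were differentiated with 100 ng/mL PMA for 24 h, then polarized with 25 ng/mL hIL-4 plus 25 ng/mL hIL-13 for 72 h. Compounds were present throughout the 72 h polarization. CCL22 in the supernatant was quantified by ELISA to give inhibition or EC50.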
(In general: In an ELISA, binding on a coated surface is turned into a signal by an enzyme label.)

Counter-ions that a name gives are not always drawn.

For orientation: EC50 means the concentration needed to bring the measured effect to its halfway point. Low readings indicate a more potent agent, high ones a less potent agent. Turning to `CC1(C)Oc2cc(N3CCCC3)ccc2C2C1=CCn1c(=O)n(-c3ccc(C(=O)O)cc3)c(=O)n12` (stereo not shown) [Example 44, 4-(7,7-dimethyl-1,3-dioxo-10-(pyrrolidin-1-yl)-5,12b-dihydro-1H,7H-chromeno[4,3-c][1,2,4]triazolo[1,2-a]pyridazin-2(3H)-yl)benzoic acid], the inhibition in vivo at 20 mg/kg in the assay with melanoma cells (B316F10) fell in the range of 25 to 66%. The compound also returned a concentration for a half-maximal effect (EC50) in the assay with human M2 macrophages of 9.5 µM.
`CCN(c1ccc2c(c1)OC(C)(C)C1=CCn3c(=O)n(-c4ccc(C(C)=O)cc4)c(=O)n3C12)C(C)C` (stereo not shown) [Example 46, 2-(4-acetylphenyl)-10-(ethyl(isopropyl)amino)-7,7-dimethyl-5,12b-dihydro-1H,7H-chromeno[4,3-c][1,2,4]triazolo[1,2-a]pyridazine-1,3(2H)-dione]: in the assay on melanoma cells (B316F10), the inhibition in vivo at 20 mg/kg lay within 25 to 66%. Further, the EC50 with human M2 macrophages turned out to be 7 µM.
In the case of `CC(=O)c1ccc(-n2c(=O)n3n(c2=O)C2C(=CC3)C(C)(C)Oc3cc(OC(=O)N(C)C)ccc32)cc1` (stereo not shown) [Example 62, 2-(4-acetylphenyl)-7,7-dimethyl-1,3-dioxo-2,3,5,12b-tetrahydro-1H,7H-chromeno[4,3-c][1,2,4]triazolo[1,2-a]pyridazin-10-yl dimethylcarbamate], the inhibition in vivo at 20 mg/kg in the assay with melanoma cells (B316F10) came to 32.3%. In the assay on human M2 macrophages, this compound had a concentration for a half-maximal effect (EC50) of 41.3 µM.
`CC(=O)C(=O)N1CCN(C(=O)Oc2ccc3c(c2)OC(C)(C)C2=CCn4c(=O)n(-c5ccc(C(C)=O)cc5)c(=O)n4C23)CC1` (stereo not shown) [Example 68, 2-(4-acetylphenyl)-7,7-dimethyl-1,3-dioxo-2,3,5,12b-tetrahydro-1H,7H-chromeno[4,3-c][1,2,4]triazolo[1,2-a]pyridazin-10-yl 4-(2-oxopropanoyl)piperazine-1-carboxylate]: the inhibition in vivo at 20 mg/kg with melanoma cells (B316F10) lay within 25 to 66%. The same compound showed an EC50 with human M2 macrophages of 74.7 µM.
Take `CC(=O)c1ccc(-n2c(=O)n3n(c2=O)C2C(=CC3)C(C)(C)Oc3cc(OP(=O)(O)O)ccc32)cc1` (stereo not shown) [Example 70, disodium 2-(4-acetylphenyl)-7,7-dimethyl-1,3-dioxo-2,3,5,12b-tetrahydro-1H,7H-chromeno[4,3-c][1,2,4]triazolo[1,2-a]pyridazin-10-yl phosphate]: the “TGI (%)” value with melanoma cells (B316F10) (phosphate) amounted to 26.2%. In the assay with human M2 macrophages, this compound yielded an EC50 of 9.4 µM.
Turning to `CC(=O)c1ccc(-n2c(=O)n3n(c2=O)C2C(=CC3)C(C)(C)Oc3cc(OC(=O)CN(C)C)ccc32)cc1` (stereo not shown) [Example 72, 2-(4-acetylphenyl)-7,7-dimethyl-1,3-dioxo-2,3,5,12b-tetrahydro-1H,7H-chromeno[4,3-c][1,2,4]triazolo[1,2-a]pyridazin-10-yl dimethylglycinate hydrochloride], the inhibition in vivo at 20 mg/kg in the assay with melanoma cells (B316F10) lay in the range of 25 to 66%. In the assay with human M2 macrophages, the EC50 is 4.7 µM.
On the same counts, the results for `CC(=O)c1ccc(-n2c(=O)n3n(c2=O)C2C(=CC3)C(C)(C)Oc3cc(OC(=O)N4CCN(C(=O)[C@@H]5CCCN5)CC4)ccc32)cc1` (stereo partly drawn) [Example 82, 2-(4-acetylphenyl)-7,7-dimethyl-1,3-dioxo-2,3,5,12b-tetrahydro-1H,7H-chromeno[4,3-c][1,2,4]triazolo[1,2-a]pyridazin-10-yl 4-(L-prolyl)piperazine-1-carboxylate hydrochloride] are 66.3% and 68.6 µM.
For `CC(=O)c1ccc(-n2c(=O)n3n(c2=O)C2C(=CC3)C(C)(C)Oc3cc(OC(=O)N(C)CCC(=O)O)ccc32)cc1` (stereo not shown) [Example 91, 3-((((2-(4-acetylphenyl)-7,7-dimethyl-1,3-dioxo-2,3,5,12b-tetrahydro-1H,7H-chromeno[4,3-c][1,2,4]triazolo[1,2-a]pyridazin-10-yl)oxy)carbonyl)(methyl)amino)propanoic acid], the inhibition in vivo at 20 mg/kg in the assay on melanoma cells (B316F10) lay within 25 to 66%.
As to `CC(=O)c1ccc(-n2c(=O)n3n(c2=O)C2C(=CC3)C(C)(C)Oc3cc(OC(=O)N(C)CCC(=O)O)ccc32)cc1` (stereo not shown) [Example 92, sodium 3-((((2-(4-acetylphenyl)-7,7-dimethyl-1,3-dioxo-2,3,5,12b-tetrahydro-1H,7H-chromeno[4,3-c][1,2,4]triazolo[1,2-a]pyridazin-10-yl)oxy)carbonyl)(methyl)amino)propanoate], the “TGI (%)” value in the assay on melanoma cells (B316F10) is recorded as 25.5%.
